Test results from patent US4751026A, “Substituted anilides of oleic, linoleic, or linolenic acid as inhibitors of acyl-coa:cholesterol acyltransferase” (Warner-Lambert Company, priority 1987, dated 1988).
pIC50: −log10 of the molar value.

Key:
[1] = target: T1, acyl-CoA:cholesterol acyltransferase (ACAT) (Oryctolagus cuniculus, UniProt G1SFD9); assay: In vitro inhibition of ACAT: radio-labeled cholesterol oleate formed from radio-labeled oleic acid in rabbit intestinal microsomes; type: biochemical; details: inhibition of acylation of cholesterol by oleic acid
T1 construct: in a tissue preparation containing rabbit intestinal microsomes; from tissue; host or cells: rabbit intestine, microsomes
T1 sequence (G1SFD9 1-524): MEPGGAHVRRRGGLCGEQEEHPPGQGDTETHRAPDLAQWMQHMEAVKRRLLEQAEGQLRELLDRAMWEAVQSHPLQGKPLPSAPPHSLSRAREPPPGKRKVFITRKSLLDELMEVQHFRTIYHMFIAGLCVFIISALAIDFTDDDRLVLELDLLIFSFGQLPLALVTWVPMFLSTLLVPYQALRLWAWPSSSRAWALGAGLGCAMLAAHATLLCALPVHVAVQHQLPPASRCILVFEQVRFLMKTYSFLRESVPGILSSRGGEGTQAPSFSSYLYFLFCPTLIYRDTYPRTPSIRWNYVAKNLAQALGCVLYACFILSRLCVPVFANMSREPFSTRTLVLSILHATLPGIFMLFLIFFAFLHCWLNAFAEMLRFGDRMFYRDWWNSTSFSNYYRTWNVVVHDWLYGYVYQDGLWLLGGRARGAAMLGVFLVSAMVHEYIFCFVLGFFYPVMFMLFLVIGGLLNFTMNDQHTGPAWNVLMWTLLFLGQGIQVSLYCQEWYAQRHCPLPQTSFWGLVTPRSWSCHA
Protocol: The ability of representative compounds of the present invention to inhibit ACAT was measured using an in vitro test more fully described in Field, F. J. and Salone, R. G., Biochemica et Biophysica 712: 557-570 (1982). The test assesses the ability of a test compound to inhibit the acylation of cholesterol by oleic acid by measuring the amount of radio-labeled cholesterol oleate formed from radio-labeled oleic acid in a tissue preparation containing rabbit intestinal microsomes.
The data appear in Table 1 where they are expressed as IC50 values; i.e. the concentration of test compound required to inhibit 50% […] of the enzyme.

[2] = system: Serum LDL Cholesterol; assay: In vivo serum cholesterol lowering in cholesterol-fed rabbits; parameters: species or system Male, New Zealand white rabbits; details: cholesterol-enriched diet, oral 50 mg/kg thirty minutes prior to each meal for seven days, three hours after last meal
From the text: Male, New Zealand white rabbits weighing approximately 1 kg were fed a normal diet 40 g per day of rabbit chow (Purina No. 5321, Ralston Purina Co., 711 West Fuesser Road, Mascoutah, Ill., 62224, USA). After six days on this diet, the rabbits were fed 50 g per day for three days of a cholsterol-enriched diet consisting of one part of a cholesterol-containing chow (Purina Catalog No. 841206WLI, 0.25% cholesterol) and two parts of normal chow. Next, the rabbits were fed 60 g per day for four days of a cholsterol-enriched diet consisting of two parts of a cholesterol-containing chow (Purina Catalog No. 814206WLI, 0.25% cholesterol) and one part of normal chow.
After this meal adaptation and cholesterol loading period, the test compounds of this invention were administered to the test animals in oral doses of 50 mg/kg of body weight thirty minutes prior to each meal for seven days. Control animals were administered vehicle only.
The animals were sacrificed three hours after their last meal in the postabsorptive state. Serum cholesterol levels were determined for each animal, and the data appear in Table 2 expressed as percent change in serum cholesterol level compared to control.

pIC50 [1] | Structure (SMILES) | Percent Change in Serum LDL Cholesterol From Control [2] [%]
7.22 | CCCCCCCC/C=C\CCCCCCCC(=O)Nc1c(OC)cc(OC)cc1OC [(Z)-N-(2,4,6-Trimethoxyphenyl)-9-octadecenamide] | -53
7.38 | CCCCC/C=C\C/C=C\CCCCCCCC(=O)Nc1c(OC)cc(OC)cc1OC [(Z,Z)-N-(2,4,6-Trimethoxyphenyl)-9,12-octadecadienamide] | 
7.07 | CC/C=C\C/C=C\C/C=C\CCCCCCCC(=O)Nc1c(OC)cc(OC)cc1OC [(Z,Z,Z)-N-(2,4,6-Trimethoxyphenyl)-9,12,15-octadecatrienamide] | 
